Consider twelve molecules from patent publication US11667651B2, “Aminopyridine derivatives as phosphatidylinositol phosphate kinase inhibitors” (HiberCell, Inc., priority 2017, dated 2023).

Common to all, as to format: biochemical
In experiment [1] the target is T1, PIP4K2A (Homo sapiens, UniProt P48426).
T1 sequence (P48426 1-406): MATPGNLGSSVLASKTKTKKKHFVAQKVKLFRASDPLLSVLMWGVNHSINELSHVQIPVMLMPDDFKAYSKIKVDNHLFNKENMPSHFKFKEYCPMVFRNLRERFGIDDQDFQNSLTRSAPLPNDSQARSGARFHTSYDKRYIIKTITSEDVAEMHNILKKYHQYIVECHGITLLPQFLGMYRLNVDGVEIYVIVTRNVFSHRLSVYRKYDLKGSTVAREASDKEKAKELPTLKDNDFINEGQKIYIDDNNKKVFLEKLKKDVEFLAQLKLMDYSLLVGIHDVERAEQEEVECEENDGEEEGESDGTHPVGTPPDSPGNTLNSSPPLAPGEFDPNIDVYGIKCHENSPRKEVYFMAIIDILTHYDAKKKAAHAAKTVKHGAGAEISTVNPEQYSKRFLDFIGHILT
The experiment in a line: ADP-glo kinase assay PIP4K 2A (Table 3). The settings on record: compounds listed under IC50 bins. Also on record: made in house; host or cells: E. coli. As to the method: Dilution series of the compounds were prepared in DMSO at 100 times the final assay concentration (n1=n0/3 in 10 points). The compounds were further diluted to three times the assay concentration in assay buffer (20 mM MOPS pH 7.2, 25 mM magnesium chloride, 0.005% Tween 20). 6 μL of the diluted compounds were added to a 384 well assay plate followed by 9 μL of a mix consisting of 4 nM PIP4K2A (full length protein, SignalChem) and 100 μM PI(5)P diC8 (Tebu-Bio). Enzyme and compounds were pre-incubated at room temperature for 15 minutes.
Then 3 μL of a solution containing 60 μM ATP (Promega) in assay buffer was added to the wells containing compound and enzyme and mixing was performed by pipetting several times. The reaction was incubated at room temperature for 1 h. Then 18 μL of ADP-Glo™ Reagent (Promega) was added to stop the kinase reaction and deplete the unconsumed ATP, mixing was performed by pipetting several times. The plate was incubated at room temperature for 40 minutes before addition of 36 μL of Kinase Detection Reagent (Promega) to convert ADP to ATP and introduce luciferase and luciferin to detect ATP. The reaction was incubated at room temperature for 40 minutes before the luminescence was measured in a in a Victor 3V 1420 multilabel counter (Perkin Elmer).
Percent inhibition of the compounds as compared to dimethyl sulfoxide treated control samples was calculated. Compound concentration versus percent inhibition were fitted to generate IC50 values. […]

The target in experiment [2] is T2, PIP4K2B (Homo sapiens, UniProt P78356).
T2 construct: made in house; host or cells: E. coli
T2 sequence (P78356 1-416): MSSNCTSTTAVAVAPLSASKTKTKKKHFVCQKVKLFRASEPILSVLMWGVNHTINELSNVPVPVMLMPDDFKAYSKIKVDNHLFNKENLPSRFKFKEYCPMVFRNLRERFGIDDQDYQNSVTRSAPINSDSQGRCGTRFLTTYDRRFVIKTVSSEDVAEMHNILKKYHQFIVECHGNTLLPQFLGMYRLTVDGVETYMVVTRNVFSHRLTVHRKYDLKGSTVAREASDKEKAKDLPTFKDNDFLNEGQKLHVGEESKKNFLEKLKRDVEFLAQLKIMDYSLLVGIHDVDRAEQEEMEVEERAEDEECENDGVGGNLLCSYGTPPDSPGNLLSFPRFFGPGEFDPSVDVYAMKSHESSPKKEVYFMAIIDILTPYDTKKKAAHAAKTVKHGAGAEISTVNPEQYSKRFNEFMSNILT
The experiment in a line: Trans-FI P kinase assay PIP4K2B (Table 4). The settings on record: compounds listed under IC50 bins; read-out: Trans-FI P kinase assays: PIP4K2B IC50. The source says:
GST tagged PIP4KtypeIIA and B enzymes were overexpressed in E. Coli and purified to >80% homogeneity. Phosphatidyl inositol-5-phosphate (PI5P, Cat. #850152, Avanti Polar Lipids Inc.) was used as the lipid substrate and phosphatidyl ethanolamine (DOPE 18:1, Cat. #850725, Avanti Polar Lipids Inc.) was used as the carrier lipid for assays. Ultrapure ATP and GTP was purchased from Bellbrooke Labs. ADP Glo reagents were obtained from Promega. Transcreener FI reagent was obtained from Bellbrooke labs.
GST-tagged PIP4KtypeIIB (3.4 μL, 2.77 mg/mL) was diluted to 5 mL using HNE buffer to yield 5× enzyme stock (25 nM)
Lipid Preparation: In a 10 mL pyrex glass vial, […] were suspended in 2.5 mL of HEPES buffer mix and 2.5 mL of H:E buffer. The contents were mixed and sonicated for 3 min to yield a translucent lipid stock.
Compound Preparation: Compounds were stored as 5 mM stocks in neat DMSO as room temperature in glass vials. 5 mM stocks were diluted to 2 mM and then serially diluted (3×) in neat DMSO in 96 well polypropylene plates. From the serially diluted stocks, 3 μL was delivered into 250 μL of 25% DMSO (in water) to generate 5× compound stocks. Typically, the highest compound conc. was 24 μM.
The assay volume was kept at 25 μL. To each well of the reaction plate, 10 μL of lipid stock (1:1 ratio PI5P:DOPE) was delivered. This was followed by the addition of 5 μL of compound in 25% DMSO. Then, to each well, 5 μL of 25 nM (5×) typeIIB enzyme was delivered. The contents were mixed well and incubated for 1 h at 27° C. After 1 h, reaction was initiated by adding 5 μL of 500 μM GTP and the contents were mixed well with a multi-channel pipetteman. The final concentration of the reagents are as follows: 50 mM HEPES, pH 7.3, 10 mM MgCl2, 20 mM NaCl, 0.01% v/v triton-X100, 5% DMSO, 100 μM GTP, 80 μM (2 μg) PI5P, 2 μg DOPE, and 5 nM PIP4KIIB Typically, the highest conc. of compounds was 4.8 μM and the lowest conc. was 0.
After 2 h, the reaction was quenched by adding 25 μL of transcreener FI reagent. The contents were incubated at rt for 1 h and the Fluorescence (Ex: 584 Em: 623) was read using Molecular Devices Paradigm plate reader. […] The blanks were averaged and subtracted from all other wells. Using a calibration curve, RFU was converted to μM GDP (product). IC50 was calculated by plotting the residual activity (expressed as % No inhibitor control) vs. log [Inh. conc.]

The target of experiment [3] is T1, PIP4K2A. Briefly: Kinase Assay PIP4K2 A (Table 2). More on the design: 4 nM PIP4K2A (full length protein, SignalChem); purchased SignalChem. Particulars: compounds listed under IC50 bins. In outline:
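ADP-Glo luminescent read-out after 1 h room-temperature kinase reaction, started with 60 μM ATP solution following 15 min compound pre-incubation. Enzyme/substrate mix: 4 nM full-length PIP4K2A plus 100 μM PI(5)P diC8; buffer MOPS pH 7.2 with 25 mM MgCl2 and Tween 20. IC50 from 10-point, 3-fold titrations normalized to DMSO.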

The term IC50 denotes the point on the concentration scale where inhibition reaches its midpoint. Turning to `CN(C)C/C=C/C(=O)Nc1ccc(C(=O)Nc2cncc(Nc3ccc(-c4ccc(N5CCCC5=O)cc4)cn3)c2)cc1` [Example 167, (E)-4-(4-(dimethylamino)but-2-enamido)-N-(5-((5-(4-(2-oxopyrrolidin-1-yl)phenyl)pyridin-2-yl)amino)pyridin-3-yl)benzamide], the 50% inhibitory concentration (IC50) in experiment [1] and in experiment [2] was 10 to 100 nM in each case.

As for `CN(C)CCCC(=O)Nc1ccc(C(=O)Nc2cncc(Nc3ccc(-c4ccc(N5CCCC5=O)cc4)cn3)c2)cc1` [Example 168, 4-(4-(dimethylamino)butanamido)-N-(5-((5-(4-(2-oxopyrrolidin-1-yl)phenyl)pyridin-2-yl)amino)pyridin-3-yl)benzamide], the IC50 in experiment [1] and in experiment [2] was 10 to 100 nM each time.

`CN(C)C/C=C/C(=O)Nc1cccc(CCC(=O)Nc2cncc(Nc3ccc(-c4ccc(N5CCCC5=O)cc4)cn3)c2)c1` [Example 169, (E)-4-(dimethylamino)-N-(3-(3-oxo-3-((5-((5-(4-(2-oxopyrrolidin-1-yl)phenyl)pyridin-2-yl)amino)pyridin-3-yl)amino)propyl)phenyl)but-2-enamide]: the concentration for half-maximal inhibition (IC50) in experiment [1] and in experiment [2] was 10 to 100 nM in each case.

Take `CN(C)CCCC(=O)Nc1cccc(CCC(=O)Nc2cncc(Nc3ccc(-c4ccc(N5CCCC5=O)cc4)cn3)c2)c1` [Example 170, 4-(dimethylamino)-N-(3-(3-oxo-3-((5-((5-(4-(2-oxopyrrolidin-1-yl)phenyl)pyridin-2-yl)amino)pyridin-3-yl)amino)propyl)phenyl)butanamide]: the half-inhibitory concentration (IC50) in experiment [1] and in experiment [2] was 10 to 100 nM throughout.

For the molecule `CN(C)C/C=C/C(=O)NCC(=O)Nc1ccc(CN2CCN(c3cncc(Nc4ccc(-c5ccc(N6CCCC6=O)cc5)cn4)c3)C2=O)cc1` [Example 172, (E)-4-(dimethylamino)-N-(2-oxo-2-((4-((2-oxo-3-(5-((5-(4-(2-oxopyrrolidin-1-yl)phenyl)pyridin-2-yl)amino)pyridin-3-yl)imidazolidin-1-yl)methyl)phenyl)amino)ethyl)but-2-enamide], the 50% inhibitory concentration (IC50) fell in the range of 1 to 10 nM in experiment [1] and 10 to 100 nM in experiment [2].

Regarding `O=C1CCCN1c1ccc(-c2ccc(Nc3cnc4c(c3)N3C(=O)CC[C@@H]3CO4)nc2)cc1F` [Example 173, (R)-2-((5-(3-fluoro-4-(2-oxopyrrolidin-1-yl)phenyl)pyridin-2-yl)amino)-6,6a,7,8-tetrahydro-9H-pyrido[2,3-b]pyrrolo[1,2-d][1,4]oxazin-9-one], the IC50 in experiment [1] and in experiment [2] was 10 to 100 nM in each case.

Take `Cc1cc(Nc2cnc3c(c2)N2C(=O)CC[C@H]2CO3)ncc1-c1ccc(N2CCCC2=O)cc1` [Example 176, (S)-2-((4-methyl-5-(4-(2-oxopyrrolidin-1-yl)phenyl)pyridin-2-yl)amino)-6,6a,7,8-tetrahydro-9H-pyrido[2,3-b]pyrrolo[1,2-d][1,4]oxazin-9-one]: the IC50 fell in the range of 1 to 10 nM in experiment [1] and 10 to 100 nM in experiment [2].

For the molecule `O=C(COc1cccc2c1C(=O)N(C1CCC(=O)NC1=O)C2=O)NCCCC(=O)Nc1ccc(C(=O)Nc2cncc(Nc3ccc(-c4ccc(N5CCCC5=O)cc4)cn3)c2)cc1` (stereo not drawn) [Example 292, 4-(4-(2-((2-(2,6-dioxopiperidin-3-yl)-1,3-dioxoisoindolin-4-yl)oxy)acetamido)butanamido)-N-(5-((5-(4-(2-oxopyrrolidin-1-yl)phenyl)pyridin-2-yl)amino)pyridin-3-yl)benzamide], the results for the IC50 in experiment [3] and in experiment [2] were 100 to 1000 nM and 10 to 100 nM, respectively.

In the case of `COCc1nc(Nc2cnc3c(c2)N2C(=O)CC[C@H]2CO3)ncc1-c1ccc(C(=O)N(C)C)cc1` [Example 293, (S)-4-(4-(methoxymethyl)-2-((9-oxo-6a,7,8,9-tetrahydro-6H-pyrido[2,3-b]pyrrolo[1,2-d][1,4]oxazin-2-yl)amino)pyrimidin-5-yl)-N,N-dimethylbenzamide], the IC50 in experiment [3] and in experiment [2] was 10 to 100 nM throughout.

Take `COc1nc(Nc2cnc3c(c2)N2C(=O)CC[C@H]2CO3)ncc1-c1ccc(C(=O)N(C)C)cc1` [Example 294, (S)-4-(4-methoxy-2-((9-oxo-6a,7,8,9-tetrahydro-6H-pyrido[2,3-b]pyrrolo[1,2-d][1,4]oxazin-2-yl)amino)pyrimidin-5-yl)-N,N-dimethylbenzamide]: the half-inhibitory concentration (IC50) in experiment [3] and in experiment [2] was 1 to 10 nM throughout.

Consider `O=C1CCC(N2C(=O)c3cccc(NCCOCCOCCOCC(=O)Nc4ccc(C(=O)Nc5cncc(Nc6ccc(-c7ccc(N8CCCC8=O)cc7)cn6)c5)cc4)c3C2=O)C(=O)N1` (stereo not drawn) [Example 296, 4-(2-(2-(2-(2-((2-(2,6-dioxopiperidin-3-yl)-1,3-dioxoisoindolin-4-yl)amino)ethoxy)ethoxy)ethoxy)acetamido)-N-(5-((5-(4-(2-oxopyrrolidin-1-yl)phenyl)pyridin-2-yl)amino)pyridin-3-yl)benzamide], for which the IC50 in experiment [3] lay within 100 to 1000 nM; in experiment [2], 10 to 100 nM.

As to `CC(C)Cn1cnnc1-c1ccc(-c2ccc(Nc3cnc4c(c3)N3C(=O)CC[C@H]3CO4)nc2)cc1` [Example 297, (S)-2-((5-(4-(4-isobutyl-4H-1,2,4-triazol-3-yl)phenyl)pyridin-2-yl)amino)-6,6a,7,8-tetrahydro-9H-pyrido[2,3-b]pyrrolo[1,2-d][1,4]oxazin-9-one], the IC50 in experiment [3] and in experiment [2] was 10 to 100 nM throughout.
